Data reported in BindingDB's records for doi:10.1016/j.ejmech.2020.113045 (Rheinische Friedrich-Wilhelms-University of Bonn, 2021).

assay: Inhibition of ABCG2 (unknown origin) expressed in MDCK-II cells assessed as potentiation of SN-38-induced cytotoxicity measured after 72 hrs by MTT assay

Question: For CNc1cc(Nc2ccc(C#N)cc2)nc(-c2ccccc2)n1, which EC50 is on record?
Answer: Its EC50 is 22 nM.

Question: With CC(C)Nc1cc(Nc2ccc(C#N)cc2)nc(-c2ccccc2)n1 as the compound, how does the EC50 read?
Answer: Its EC50 is 18 nM.

Question: For CCCNc1cc(Nc2ccc(C#N)cc2)nc(-c2ccccc2)n1, which EC50 is on record?
Answer: Its EC50 is 15 nM.

Question: For CCCCNc1cc(Nc2ccc(C#N)cc2)nc(-c2ccccc2)n1, which EC50 is on record?
Answer: The EC50 was 30 nM.

Question: For N#Cc1ccc(Nc2cc(-c3ccccc3)nc(-c3ccccc3)n2)cc1, which EC50 is on record?
Answer: The EC50 was 41 nM.

Question: With N#Cc1ccc(Nc2cc(Nc3ccccc3)nc(-c3ccccc3)n2)cc1 as the compound, how does the EC50 read?
Answer: Its EC50 is 44 nM.

Question: Which EC50 does the source give for N#Cc1ccc(Nc2cc(NCc3ccccc3)nc(-c3ccccc3)n2)cc1 here?
Answer: Its EC50 is 26 nM.

Question: With N#Cc1ccc(Nc2cc(NCCCc3ccccc3)nc(-c3ccccc3)n2)cc1 as the compound, how does the EC50 read?
Answer: The EC50 was 67 nM.

Question: For N#Cc1ccc(Nc2cc(NCCCCc3ccccc3)nc(-c3ccccc3)n2)cc1, which EC50 is on record?
Answer: The EC50 was 187 nM.

Question: For N#Cc1ccc(Nc2cc(NCc3ccccn3)nc(-c3ccccc3)n2)cc1, which EC50 is on record?
Answer: Its EC50 is 16 nM.

Question: For N#Cc1ccc(Nc2cc(NCc3cccnc3)nc(-c3ccccc3)n2)cc1, which EC50 is on record?
Answer: Its EC50 is 44 nM.

Question: Which EC50 does the source give for N#Cc1ccc(Nc2cc(NCc3ccncc3)nc(-c3ccccc3)n2)cc1 here?
Answer: Its EC50 is 73 nM.

Question: For N#Cc1ccc(Nc2cc(Nc3ccccc3O)nc(-c3ccccc3)n2)cc1, which EC50 is on record?
Answer: Its EC50 is 147 nM.

Question: For N#Cc1ccc(Nc2cc(Nc3cccc(O)c3)nc(-c3ccccc3)n2)cc1, which EC50 is on record?
Answer: The EC50 was 181 nM.

Question: With N#Cc1ccc(Nc2cc(Nc3ccc(O)cc3)nc(-c3ccccc3)n2)cc1 as the compound, how does the EC50 read?
Answer: Its EC50 is 171 nM.

Question: With N#Cc1ccc(Nc2cc(Nc3ccc(C#N)cc3)nc(-c3ccccc3)n2)cc1 as the compound, how does the EC50 read?
Answer: The EC50 was 231 nM.

assay: Inhibition of ABCB1 (unknown origin) expressed in human A2780 ADR cells assessed as potentiation of daunorubicin-induced cytotoxicity measured after 72 hrs by MTT assay

Question: With N#Cc1ccc(Nc2cc(Nc3ccccc3O)nc(-c3ccccc3)n2)cc1 as the compound, how does the EC50 read?
Answer: The EC50 was 34400 nM.
